# Test results published in the Kinase Knowledgebase extract (Sharma et al. 2016).
# pIC50: −log10 of the molar value.
# Biological target: PIK3CG (human) (UniProt P48736)
# Assay: Inhibition of PIK3CG Kinase Activity
# Sequence of PIK3CG (human) (P48736 whole entry, looked up): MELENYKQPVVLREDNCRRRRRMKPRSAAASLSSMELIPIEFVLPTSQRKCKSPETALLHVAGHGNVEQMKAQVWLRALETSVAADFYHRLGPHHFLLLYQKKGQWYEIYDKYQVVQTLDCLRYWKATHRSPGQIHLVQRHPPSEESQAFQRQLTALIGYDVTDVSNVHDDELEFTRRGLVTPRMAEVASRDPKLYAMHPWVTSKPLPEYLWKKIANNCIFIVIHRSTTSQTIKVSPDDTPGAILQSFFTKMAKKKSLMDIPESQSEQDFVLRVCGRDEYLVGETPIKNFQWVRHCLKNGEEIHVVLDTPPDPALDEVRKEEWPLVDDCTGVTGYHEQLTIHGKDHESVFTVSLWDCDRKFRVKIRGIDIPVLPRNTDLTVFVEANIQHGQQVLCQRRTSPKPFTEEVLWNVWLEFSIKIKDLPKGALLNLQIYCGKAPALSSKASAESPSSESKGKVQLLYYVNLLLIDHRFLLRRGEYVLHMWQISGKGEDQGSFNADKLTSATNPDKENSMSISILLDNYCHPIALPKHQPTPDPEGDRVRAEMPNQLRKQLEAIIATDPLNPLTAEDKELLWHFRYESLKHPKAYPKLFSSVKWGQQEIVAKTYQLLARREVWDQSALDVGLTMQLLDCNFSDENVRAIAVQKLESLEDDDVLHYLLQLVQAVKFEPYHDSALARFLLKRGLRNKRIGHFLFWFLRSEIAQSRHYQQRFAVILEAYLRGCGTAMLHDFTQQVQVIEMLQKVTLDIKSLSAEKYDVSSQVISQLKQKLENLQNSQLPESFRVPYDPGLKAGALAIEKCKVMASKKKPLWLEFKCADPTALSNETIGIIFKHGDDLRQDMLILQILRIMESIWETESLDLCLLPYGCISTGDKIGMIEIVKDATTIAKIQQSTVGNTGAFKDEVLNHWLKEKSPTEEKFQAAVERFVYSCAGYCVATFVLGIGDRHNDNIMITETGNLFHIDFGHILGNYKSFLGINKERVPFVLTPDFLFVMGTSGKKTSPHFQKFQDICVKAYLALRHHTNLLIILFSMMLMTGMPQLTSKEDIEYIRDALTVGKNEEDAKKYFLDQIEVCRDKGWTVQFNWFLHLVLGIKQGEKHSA
row,pIC50,SMILES
1,> 5.70,Cn1nc(-c2cccnc2)c2cnc(N)nc21
2,> 5.70,COc1ccc(-c2nn(C)c3nc(N)ncc23)cc1
3,> 5.70,Cn1nc(-c2ccc(NS(C)(=O)=O)c(F)c2)c2cnc(N)nc21
4,> 5.70,Cn1nc(-c2ccc(OCC#N)c(F)c2)c2cnc(N)nc21
5,> 5.70,Cn1nc(-c2ccc(OCCCO)c(F)c2)c2cnc(N)nc21
6,> 5.70,Cn1nc(-c2cc(F)ccc2O)c2cnc(N)nc21
7,> 5.70,Cn1nc(-c2ccc3ccoc3c2)c2cnc(N)nc21
8,> 5.70,COc1ncc(-c2nn(C)c3nc(N)ncc23)cc1F
9,> 5.70,CC(C)CNC(=O)c1cccc(-c2nn(C)c3nc(N)ncc23)c1
10,> 5.70,COc1cc(OC)c(S(=O)(=O)O)cc1-c1nn(C)c2nc(N)ncc12
11,> 5.70,COc1ccc(-c2nn(C)c3nc(N)ncc23)c(OC)c1
12,> 5.70,Cn1nc(-c2ccc(OCCCN3CCOCC3)c(F)c2)c2cnc(N)nc21
13,> 5.70,Cn1nc(-c2cc(F)cc(OCC(=O)O)c2)c2cnc(N)nc21
14,> 5.70,COCCOc1c(F)cc(-c2nn(C)c3nc(N)ncc23)cc1Br
15,> 5.70,Cn1nc(-c2cccc(C(F)(F)F)c2)c2cnc(N)nc21
16,> 5.70,Cn1nc(-c2ccco2)c2cnc(N)nc21
17,> 5.70,Cn1nc(-c2ccc(O)c(F)c2)c2cnc(N)nc21
18,> 5.70,Cn1nc(-c2cccc(S(C)(=O)=O)c2)c2cnc(N)nc21
19,> 5.70,Cn1nc(-c2ccc(OCCN3CCOCC3)c(F)c2)c2cnc(N)nc21
20,> 5.70,Cn1nc(-c2cc(F)c(O)c(Cl)c2)c2cnc(N)nc21
21,> 5.70,Cn1nc(-c2cc(F)c(OCCO)c(Br)c2)c2cnc(N)nc21
22,> 5.70,Cn1nc(-c2cc(C(F)(F)F)ccc2O)c2cnc(N)nc21
23,> 5.70,Cn1nc(-c2cnc(N)c(C(F)(F)F)c2)c2cnc(N)nc21
24,> 5.70,Cn1nc(-c2cncc(S(C)(=O)=O)c2)c2cnc(N)nc21
25,> 5.70,CN1CCN(CCCOc2ccc(-c3nn(C)c4nc(N)ncc34)cc2F)CC1

row,pIC50,SMILES
1,> 5.70,COc1ccc(F)cc1-c1nn(C)c2nc(N)ncc12
2,> 5.70,Cn1nc(-c2cc(F)c3[nH]ccc3c2)c2cnc(N)nc21
3,> 5.70,Cn1nc(-c2ccc(F)c(Cl)c2)c2cnc(N)nc21
4,> 5.70,COc1ccc(-c2nn(C)c3nc(N)ncc23)cc1F
5,> 5.70,CNc1ncc2c(-c3ccc(OC)c(F)c3)nn(C)c2n1
6,> 5.70,Cn1nc(-c2cc(F)c(O)c(F)c2)c2cnc(N)nc21
7,> 5.70,Cn1nc(-c2cc(Cl)c(O)c(Cl)c2)c2cnc(N)nc21
8,> 5.70,Cn1nc(-c2ccc(C#N)cc2)c2cnc(N)nc21
9,> 5.70,Cn1nc(-c2cc(Cl)ccc2O)c2cnc(N)nc21
10,> 5.70,COc1ccc(C=O)cc1-c1nn(C)c2nc(N)ncc12
11,> 5.70,COc1cc(OC)c(S(=O)(=O)NC(C)C)cc1-c1nn(C)c2nc(N)ncc12
12,> 5.70,Cn1nc(-c2ccc(Cl)c(Cl)c2)c2cnc(N)nc21
13,> 5.70,Cn1nc(-c2ccc(OCCO)c(F)c2)c2cnc(N)nc21
14,> 5.70,CN(C)C(=O)c1cc(-c2nn(C)c3nc(N)ncc23)cc(F)c1OCc1ccccc1
15,> 5.70,Cn1nc(-c2cc(Cl)c(O)c(C(F)(F)F)c2)c2cnc(N)nc21
16,> 5.70,CNS(=O)(=O)c1cc(-c2nn(C)c3nc(N)ncc23)ccc1Cl
17,> 5.70,Cn1nc(-c2cc(Cl)c(O)c(Br)c2O)c2cnc(N)nc21
18,> 5.70,CC(=O)c1ccc(-c2nn(C)c3nc(N)ncc23)s1
19,> 5.70,Cn1nc(-c2ccc(F)c(F)c2)c2cnc(N)nc21
20,> 5.70,CCOc1ccc2ccccc2c1-c1nn(C)c2nc(N)ncc12
21,> 5.70,CNC(=O)c1cccc(-c2nn(C)c3nc(N)ncc23)c1
22,> 5.70,Cn1nc(-c2ccc(OC(F)(F)F)cc2O)c2cnc(N)nc21
23,> 5.70,CC(=O)c1ccc(-c2nn(C)c3nc(N)ncc23)cc1
24,> 5.70,Cn1nc(-c2cc(F)c(C=O)c(F)c2)c2cnc(N)nc21
25,> 5.70,Cn1nc(-c2cncc(C(F)(F)F)c2)c2cnc(N)nc21
